From patent publication US20240067655A1 (NEURON23, INC., priority 2020, published 2024)

molecular target: T1, wt human LRRK2, catalytic site (Homo sapiens, UniProt Q5S007); experiment: TR-FRET LanthaScreen Tb Kinase Activity Assay (Example 71); format: biochemical; conditions: compounds of Table 4, 38 uM ATP, method names only wt human LRRK2, read-out: IC50, Inhibitory Activity Toward LRRK2 (Wt) and LRRK2 (G2019)
T1 construct: wt human LRRK2, catalytic site; purchased ThermoFisher/USA
Procedure: The compounds in Table 4 were tested for their inhibitory effect on LRRK2 kinases according to the following procedures.
The basic protocol for TR-FRET LanthaScreen Tb Kinase Activity Assay inhibitor studies were performed as follows. LanthaScreen Kinase Activity Assays (ThermoFisher/USA) to evaluate inhibitors were performed by addition of 100 nl of test compound in corresponding DMSO dilutions/5 μl of kinase/fluorescein-ERM(LRRKtide) peptide mixture, 5 μl of ATP into 384 well small volume plates. After incubation for 120 minutes at room temperature, the detection reagents containing Tb-anti-pLRRKtide antibody were added to monitor phosphrylation level of peptide. Then, after 60 min minutes incubation at room temperature plates were read in Envision. Data analysis of emission ratios was according to LanthaScreen Tb Kinase Activity Assay protocol.
Kinase and assay components were adjusted to final concentrations according to the kit protocol. For LRRK2: 2 nM wt human LRRK2, catalytic site, catalytic site (ThermoFisher/USA), 400 nM peptide, 38 uM ATP in 1× Kinase Buffer A.
Basic protocol for TR-FRET LanthaScreen Tb Kinase Activity Assay inhibitor studies involved two steps:
Enzymatic step: Addition of 100 nl of test compound in corresponding DMSO dilutions, 5 μl of kinase/substrate mixture, 5 μl of ATP into 384 well small volume plates. Incubation for 120 minutes at room temperature.
Detection step: Addition of 10 μl EDTA & antibody, read plate after 60 minutes. Data analysis of emission ratios according to KinEASE assay protocol.

T1 sequence (Q5S007 1879-2138 limits assumed): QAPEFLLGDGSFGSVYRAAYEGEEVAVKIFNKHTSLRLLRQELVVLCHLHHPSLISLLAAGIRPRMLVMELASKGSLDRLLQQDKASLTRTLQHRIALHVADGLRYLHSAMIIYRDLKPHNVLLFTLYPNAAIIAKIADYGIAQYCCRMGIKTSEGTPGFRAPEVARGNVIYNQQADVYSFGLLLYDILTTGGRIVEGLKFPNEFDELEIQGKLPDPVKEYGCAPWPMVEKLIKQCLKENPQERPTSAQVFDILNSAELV

Structure (SMILES)	IC50
Fc1ccccc1C1=Nc2cn[nH]c2-c2cnn3c2N1CCC3 [Compound 362, 9-(2-fluorophenyl)-3,6,7,8-tetrahydro-2,3,5,5a,8a,10-hexaazabenzo[cd]cyclopenta[h]azulene]	10 to 100 nM
COc1cc(F)c(C2=Nc3cn[nH]c3-c3cnn4c3N2CCC4)c(F)c1 [Compound 360, 8-(2,6-difluoro-4-methoxy-phenyl)-3,4,7,9,13,14-hexazatetracyclo[7.6.1.02,6.013,16]hexadeca-1(16),2(6),4,7,14-pentaene]	10 to 100 nM
Fc1cc(Cl)cc(F)c1C1=Nc2cn[nH]c2-c2cnn3c2N1CC3 [Compound 388, 3-(4-chloro-2,6-difluorophenyl)-2,7-dihydro-1H-2a,4,6,7,9,9a-hexaazadicyclopenta[cd,f]azulene]	10 to 100 nM
Fc1cccc(F)c1C1=Nc2c(Cl)n[nH]c2-c2cnn3c2N1CC3 [Compound 375, 5-chloro-3-(2,6-difluorophenyl)-2,7-dihydro-1H-2a,4,6,7,9,9a-hexaazadicyclopenta[cd,f]azulene]	< 10 nM
Cc1cccc(F)c1C1=Nc2cn[nH]c2-c2cnn3c2N1CC3 [Compound 382, 8-(2-fluoro-6-methyl-phenyl)-3,4,7,9,12,13-hexazatetracyclo[7.5.1.02,6.012,15]pentadeca-1(15),2(6),4,7,13-pentaene]	< 10 nM
Fc1ccc(Br)c(F)c1C1=Nc2cn[nH]c2-c2cnn3c2N1CC3 [Compound 389, 3-(3-bromo-2,6-difluorophenyl)-2,7-dihydro-1H-2a,4,6,7,9,9a-hexaazadicyclopenta[cd,f]azulene]	< 10 nM

Next, values leading:

IC50	Structure (SMILES)
10 to 100 nM	OCc1cc(F)c(C2=Nc3cn[nH]c3-c3cnn4c3N2CCC4)c(F)c1 [Compound 359, (3,5-difluoro-4-(3,6,7,8-tetrahydro-2,3,5,5a,8a,10-hexaazabenzo[cd]cyclopenta[h]azulen-9-yl)phenyl)methanol]
< 10 nM	Cc1n[nH]c2c1N=C(c1c(F)ccc(Br)c1F)N1CCn3ncc-2c31 [Compound 391, 3-(3-bromo-2,6-difluorophenyl)-5-methyl-2,7-dihydro-1H-2a,4,6,7,9,9a-hexaazadicyclopenta[cd,f]azulene]
100 to 1000 nM	Fc1ccccc1C1=Nc2cn[nH]c2-c2cnn3c2N1CCCC3 [Compound 363, 10-(2-fluorophenyl)-6,7,8,9-tetrahydro-3H-2,3,5,5a,9a,11-hexaazadicyclopenta[b,kl]heptalene]
10 to 100 nM	Fc1cc2ncccc2c(F)c1C1=Nc2cn[nH]c2-c2cnn3c2N1CC3 [Compound 404, 3-(5,7-difluoroquinolin-6-yl)-2,7-dihydro-1H-2a,4,6,7,9,9a-hexaazadicyclopenta[cd,f]azulene]
10 to 100 nM	Fc1cccc(C(F)F)c1C1=Nc2cn[nH]c2-c2cnn3c2N1CCC3 [Compound 381, 8-[2-(difluoromethyl)-6-fluoro-phenyl]-3,4,7,9,13,14-hexazatetracyclo[7.6.1.02,6.013,16]hexadeca-1(16),2(6),4,7,14-pentaene]
< 10 nM	Fc1cccc(F)c1C1=Nc2c(Cl)n[nH]c2-c2cnn3c2N1CCC3 [Compound 371, 5-chloro-8-(2,6-difluorophenyl)-3,4,7,9,13,14-hexazatetracyclo[7.6.1.02,6.013,16]hexadeca-1(16),2(6),4,7,14-pentaene]
< 10 nM	C[C@H]1CCN2C(c3c(F)cccc3F)=Nc3cn[nH]c3-c3cnn1c32 (single isomer, unassigned) [Compound 347]
< 10 nM	Fc1ccc(Br)c(Cl)c1C1=Nc2cn[nH]c2-c2cnn3c2N1CC3 [Compound 392, 3-(3-bromo-2-chloro-6-fluorophenyl)-2,7-dihydro-1H-2a,4,6,7,9,9a-hexaazadicyclopenta[cd,f]azulene]
< 10 nM	Cc1n[nH]c2c1N=C(c1c(F)ccc(C#N)c1F)N1CCCn3ncc-2c31 [Compound 397, 2,4-difluoro-3-(1-methyl-3,6,7,8-tetrahydro-2,3,5,5a,8a,10-hexaazabenzo[cd]cyclopenta[h]azulen-9-yl)benzonitrile]
